What all share (assay): whole-cell patch clamp, HEK293T cells expressing mutant
Holding throughout (format): cell-based
Common to all, as to settings: for relative responsiveness: 100 µM agonist 2 s, relative to ATP (100%)
A general note: In patch-clamp work, channel activity is measured electrically.

One test deals with T1, rP2X4R G291A mutant (Rattus norvegicus, UniProt P51577, G291A).
T1 construct: expressed in transfected cells; host or cells: HEK293T
T1 sequence (P51577 1-388 G291A): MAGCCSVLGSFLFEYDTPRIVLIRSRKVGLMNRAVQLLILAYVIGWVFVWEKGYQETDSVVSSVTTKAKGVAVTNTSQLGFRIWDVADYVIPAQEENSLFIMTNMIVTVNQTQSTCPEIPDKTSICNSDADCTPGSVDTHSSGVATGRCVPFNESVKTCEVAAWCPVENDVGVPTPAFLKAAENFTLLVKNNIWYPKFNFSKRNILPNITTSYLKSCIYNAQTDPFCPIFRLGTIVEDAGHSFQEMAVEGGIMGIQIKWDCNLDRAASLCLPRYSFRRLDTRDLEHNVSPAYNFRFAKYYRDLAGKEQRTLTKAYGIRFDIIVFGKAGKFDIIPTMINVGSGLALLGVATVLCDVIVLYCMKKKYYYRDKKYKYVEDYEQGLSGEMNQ
The method, then: (§1) To express the recombinant channels, we used human embryonic kidney (HEK) 293T cells (American Type Culture Collection, Rockville, MD, USA) grown in Dulbecco modified Eagle’s medium (Thermo Fisher Scientific, Waltham, MA) supplemented with 10% fetal bovine serum (Sigma-Aldrich, St Louis, MO), 50 U/ml penicillin and 50 µg/ml streptomycin (both Thermo Fisher Scientific, Waltham, MA) in a humidified 5% CO2 and 95% air at 37°C. Cells were cultured in 75 cm^2 plastic culture flasks (NUNC, Rochester, NY) for 36–72 hours until reaching 80–95% confluence. Before the day of transfection, the cells were plated on 35 mm culture dishes (Sarstedt, Newton, NC) and incubated at 37°C for at least 24 h. Transfection was done using 2 µg of either WT or mutant receptor DNA with 2 µl of JetPrime reagent in 2 ml of Dulbecco modified Eagle’s medium, according to manufacturer’s instructions (PolyPlus-transfection, Illkirch, France). Transfected cells were identified by the fluorescence signal of EGFP using the Olympus IX71 inverted research microscope with fluorescence illuminators (Model IX71; Olympus, Melville, NY).
(§2) cDNAs encoding the sequences of the rP2X4 and mutated subunits were subcloned into the pIRES2-EGFP vector (Clontech, Mountain View, CA, USA). To generate the mutants, oligonucleotides (synthesized and provided by VBC-Genomics, Vienna, Austria or Sigma Aldrich) containing specific mutagenesis mismatches were introduced into the rP2X4/pIRES2-EGFP template using PfU Ultra DNA polymerase (Thermo Fisher Scientific). A High-Speed Plasmid Mini Kit (Geneaid, Taipei City, Taiwan) was used to isolate the plasmids for transfection. Dye terminator cycle sequencing (ABI PRISM 3100, Applied Biosystems, Foster City, CA) was used to identify and verify the presence of the mutations. The sequencing was performed by the DNA Sequencing Laboratory, Institute of Microbiology, ASCR, Prague.
(§3) ATP-induced currents were recorded from whole cells clamped to −60 mV using an Axopatch 200B patch-clamp amplifier (Axon Instruments, Union City, CA). The recordings were captured and stored using the Digidata 1322A and pClamp9 software package (Axon Instruments). During the experiments, the cell culture was perfused with a bath solution containing: 142 mM NaCl, 3 mM KCl, 2 mM CaCl2, 1 mM MgCl2, 10 mM 4-(2-Hydroxyethyl)piperazine-1-ethanesulfonic acid (HEPES) and 10 mM D-glucose, adjusted to pH 7.3 with 1 M NaOH. The patch electrodes were filled with a solution containing: 154 mM CsCl, 11 mM EGTA and 10 mM HEPES, adjusted to pH 7.2 with 1.6 M CsOH. The whole-cell configuration was used to abolish the influence of natively present metabotropic receptors for ATP and we used intracellular cesium to block any kind of possible background potassium conductance. Potency of ATP was measured based on the activation of naïve (not previously stimulated) receptors using a short (2–5 s) application of various concentrations of ATP. The results are expressed as molar concentration of ATP required to produce 50% of the maximal response (EC50). One or two responses were recorded from one cell, if not otherwise stated, and responses from different cells were pooled. The maximum current amplitude (Imax) was measured in response to application of supramaximal concentrations (100–1000 µM) of ATP. Responsiveness to P2XR agonists 2-MeS-ATP, ATPγS, BzATP, and α,β-meATP, all applied in 100 µM concentration, was expressed as percentage of response in comparison to 100 µM ATP treatment for selected mutants. In all mutants, the whole cell currents were also measured in the presence of 3 µM IVM, which was dissolved in dimethyl sulfoxide, stored in stock solutions at 10 mM, and diluted to required concentrations in bath solution in the day of experiment. The control and drug containing solutions were applied via a rapid (exchange time 30–40 ms) perfusion system (RSC-200, BIOLOGIC, Claix, France). All other chemicals are from Sigma-Aldrich. […]

For the next test, the target named is T2, rP2X4R Y213A mutant (Rattus norvegicus, UniProt P51577, Y213A).
T2 construct: expressed in transfected cells; host or cells: HEK293T
T2 sequence (P51577 1-388 Y213A): T1 sequence (P51577 1-388 G291A) with Y213A, A291G
The method, then: as §1, §2, §3

A further test has as its target T3, rP2X4R Y292A mutant (Rattus norvegicus, UniProt P51577, Y292A).
T3 construct: expressed in transfected cells; host or cells: HEK293T
T3 sequence (P51577 1-388 Y292A): T1 sequence (P51577 1-388 G291A) with A291G, Y292A
On the procedure:
as §1, §2, §3

[1] abbreviates: 100 µM ATP 60 s, biexponential fit.
The mark [2] stands for this setting: contribution of τdes2, 100 µM ATP 60 s.
The mark [3] stands for this setting: decay after removal of 1 or 3 µM ATP, 3 µM IVM.
Where [4] appears, read: naïve receptors, 2–5 s application.
Setting [5] is: 3 µM IVM 4-6 min vs IVM-untreated.

Where a chain is given by its changes, count along the chain named.

As for “2′(3′-O-(4-Benzoylbenzoyl)adenosine 5′-triphosphate [BzATP]”, the relative responsiveness on rP2X4R G291A mutant is on record as 53.0±4.0 %; on rP2X4R Y213A mutant, 27.3±5.5%; at rP2X4R Y292A mutant it was 28.9±8.2%.
On the same counts, the results for `CSc1nc(N)c2ncn([C@@H]3O[C@H](COP(=O)(O)OP(=O)(O)OP(=O)(O)O)[C@@H](O)[C@H]3O)c2n1` [2-MeS-ATP, 2-(Methylthio)adenosine 5′-triphosphate] are 36.9±8.8 %, 63.8±16.4% and 49.8±8.6%.
Consider `Nc1ncnc2c1ncn2[C@@H]1O[C@H](COP(=O)(O)OP(=O)(O)OP(=O)(O)O)[C@@H](O)[C@H]1O` [ATP], for which the τdes1 is on record as 2.0 ± 0.5 s at rP2X4R G291A mutant (setting [1]), 3.0 ± 0.3 s at rP2X4R Y213A mutant (setting [1]) and 1.9 ± 0.2 s at rP2X4R Y292A mutant (setting [1]). The τdes2 on rP2X4R G291A mutant (setting [1]) is reported as 16.5 ± 2.7 s; at rP2X4R Y213A mutant (setting [1]) it was 12.4 ± 1.6 s; on rP2X4R Y292A mutant (setting [1]), 15.8 ± 0.2 s. Besides, the Imax on rP2X4R G291A mutant (100–1000 µM ATP) was determined as 2.1 ± 0.2 nA; on rP2X4R Y213A mutant (100–1000 µM ATP) it was 2.2 ± 0.4 nA; at rP2X4R Y292A mutant (100–1000 µM ATP) it was 1.9 ± 0.3 nA. The “Imax+IVM” value at rP2X4R G291A mutant (ATP after 3 µM IVM 4-6 min) amounted to 3.3 ± 0.4 nA; at rP2X4R Y213A mutant (ATP after 3 µM IVM 4-6 min), 3.1 ± 0.2 nA; on rP2X4R Y292A mutant (ATP after 3 µM IVM 4-6 min) it was 4.3 ± 0.3 nA. The “A2 /(A1+A2)” value on rP2X4R G291A mutant (setting [2]) stood at 69 ± 12%; on rP2X4R Y213A mutant (setting [2]), 61 ± 6%; on rP2X4R Y292A mutant (setting [2]) it was 57 ± 3%. Besides, the “τoff +IVM” value on rP2X4R G291A mutant (setting [3]) stood at 13 ± 1.0 s; on rP2X4R Y213A mutant (setting [3]), 18 ± 4.3 s; at rP2X4R Y292A mutant (setting [3]) it was 11 ± 1.2 s. For the same compound, the EC50 came out at 15 ± 3.8 µM on rP2X4R G291A mutant (setting [4]), 6 ± 0.9 µM at rP2X4R Y213A mutant (setting [4]) and 7.2 ± 1.9 µM at rP2X4R Y292A mutant (setting [4]). The τdes on rP2X4R G291A mutant (weighted, 100 µM ATP 60 s) was 13 ± 2.7 s; at rP2X4R Y213A mutant (weighted, 100 µM ATP 60 s), 8.5 ± 0.8 s; at rP2X4R Y292A mutant (weighted, 100 µM ATP 60 s) it was 10 ± 1.5 s.
Regarding `Nc1ncnc2c1ncn2[C@@H]1O[C@H](CO[P@](=O)(O)O[P@](=O)(O)O[P@@](=O)(O)S)[C@@H](O)[C@H]1O` [ATPγS, Adenosine 5′-(γ-thio)triphosphate], the relative responsiveness was 31.6±6.1 % on rP2X4R G291A mutant, 37.1±5.5% at rP2X4R Y213A mutant and 42.3±7.0% on rP2X4R Y292A mutant.
With `CC[C@H](C)[C@H]1O[C@]2(CC[C@@H]1C)C[C@@H]1C[C@@H](C/C=C(\C)[C@@H](O[C@H]3C[C@H](OC)[C@@H](O[C@H]4C[C@H](OC)[C@@H](O)[C@H](C)O4)[C@H](C)O3)[C@@H](C)/C=C/C=C3\CO[C@@H]4[C@H](O)C(C)=C[C@@H](C(=O)O1)[C@]34O)O2` [IVM, ivermectin], the “Fold incr. Imax” value at rP2X4R G291A mutant (setting [5]) is 1.4 ± 0.02 fold; at rP2X4R Y213A mutant (setting [5]), 1.4 ± 0.1 fold; at rP2X4R Y292A mutant (setting [5]) it was 2.0 ± 0.3 fold.
Consider `Nc1ncnc2c1ncn2C1OC(COP(=O)(O)CP(=O)(O)OP(=O)(O)O)C(O)C1O` (stereo not drawn) [α,β-meATP, α,β-methyleneadenosine 5′-triphosphate], for which the values for the relative responsiveness on rP2X4R G291A mutant, at rP2X4R Y213A mutant and on rP2X4R Y292A mutant were 2.8±0.5 %, 31.3±6.7% and 16.2±4.4 %, respectively.

For orientation: EC50 means the concentration at which the effect is half-maximal.

The record behind these values is PMC4232510, “Identification of Functionally Important Residues of the Rat P2X4 Receptor by Alanine Scanning Mutagenesis of the Dorsal Fin and Left Flipper Domains” (PLoS ONE, 2014).
